# From paper PMC6915728 (Nature Communications, 2019)
# Like-named read-outs stand apart in the source and are kept apart here. Ends that are not written are not given here.
# Legend:
# [1] = test system: E. coli K12 BW25113 carrying the pooled ASKA overexpression plasmid library (~4400 ORFs); test: Chemical-genetic profiling: pooled competitive growth of the ASKA gene-overexpression library with and without AMP, deep sequencing readout; format: cell-based, Escherichia coli; settings: overexpressed gene aaaD; presence vs absence of AMP; average of biological replicates
# Description: We generated chemical-genetic interaction profiles for a diverse set of AMPs (Table 1) by screening them against a comprehensive library of gene overexpressions in E. coli[21]. Increasing gene dosage is a widely applied approach to reveal the targets of small-molecule antibiotics[22],[23]. It also informs on the ‘latent resistome’, that is, the collection of genes where a change from native expression level enhances resistance to a particular drug[24]. We applied a sensitive competition assay by monitoring growth of a pooled plasmid library, overexpressing all the E. coli ORFs (Fig. 1a), as we reported earlier. Specifically, E. coli cells carrying the pooled plasmid collection were grown in the presence or absence of one of the 15 AMPs tested, at a sub-inhibitory concentration that increased the doubling time of the whole population by 2-fold. Following 12 generations of growth, the plasmid pool was isolated from each selection and the relative abundance of each plasmid was determined by a deep sequencing readout (see Methods).
# We carried out chemical-genetic profiling to determine the impact of the overexpression of each E. coli ORF on bacterial susceptibility to each of the 15 different AMPs. To this end, we used the complete set of E. coli K-12 Open Reading Frame Archive (ASKA) plasmid library (GFP minus) where each E. coli ORF is cloned into a high copy number expression plasmid (pCA24N-ORFGFP(-)). Prior to screening, the ASKA library was grown in the original host strain E. coli K-12 AG1 in 96-well plates (growth conditions: 37 °C, 280 rpm, LB medium). An equal aliquot of each member of the ASKA library (each well of the 96-well plates) was pooled together and the plasmid DNA (pCA24N-ORF-GFP(-)) was isolated and transformed into E. coli K12 BW25113 strain[51]. To obtain a negative control strain not having any overexpressed gene, the plasmid without a cloned ORF (pCA24N-noORF) was also transformed into the same E. coli strain. Then, on the pooled collection, we applied a previously reported competitive growth assay. Specifically, the pooled overexpression library and the control strain were grown in parallel in MS medium supplemented with 20 µg per ml chloramphenicol and the overexpression was induced by 100 µM isopropyl-ß-D-thiogalactopyranoside (IPTG). After 1 h induction, ~5 × 10^5 bacterial cells from the library were inoculated into each well of a 96-well microtiter plate containing a concentration gradient of an AMP in the MS medium supplemented with 20 µg per ml chloramphenicol and 100 µM IPTG. At the same time, both the library and the control strain with the empty plasmid were grown in the absence of any AMPs. We took special care to grow both of these samples in the exact same conditions as the samples in the presence of AMPs. Bacterial growth was monitored in a microplate reader (Biotek Synergy 2) for 24 h. At the end of the exponential growth phase, we selected those wells in which the doubling time of the cell population was increased by 2-fold. Then, from these wells, cells were split into four equal proportion and each was transferred into 20 mL of MS medium supplemented with the corresponding AMP in four different concentrations in the range that slowed down growth by two-fold in the microtitre plate. […] The rationale for this 2-step process was to maintain competition in exponential phase for 12 generations of growth, efficiently control the growth rate in a reproducible manner and obtain the plasmid pool with standard DNA isolation protocol (innuPREP plasmid mini Kit, Analytik Jena AG) in a yield that is enough for the downstream analysis. The cultures were vigorously shaken along the entire protocol to make sure that the cultures are completely homogeneous and therefore biasing interactions between clones (such as trans-resistance) was minimized. […]
# [2] = test system: E. coli BW25113 overexpression strains (ASKA plasmids); test: Minimum inhibitory concentration (MIC), serial broth dilution, single-gene overexpression strains vs empty-vector control; format: cell-based, Escherichia coli; settings: broth dilution, MS medium, 100 µM IPTG, 30 °C, 20-24 h, OD600, 3 replicates
# Description: Minimum inhibitory concentrations (MIC) were determined with a standard serial broth dilution technique with a minor modification. Specifically, instead of a two-fold dilution series, smaller AMP concentration steps were used (typically 1.2-fold) for two reasons. […] Second, gene overexpressions caused typically only small changes in the MICs of AMPs and therefore higher resolution was required. The protocol was as follows. From a stock solution of an AMP, 12-steps serial dilution was prepared in fresh MS medium in 96-well microtiter plates. Each AMP was represented in 11 different concentrations (3 wells per AMP concentration per strain). Three wells contained only medium to check the growth in the absence of AMP. After overnight growth in MS medium supplemented with chloramphenicol, bacterial strains were diluted 20-fold into fresh MS medium and grown until the cell density reached OD600 ~1. Cells were induced by 100 µM of IPTG and incubated for 1 h at 30 °C with continuous shaking at 300 rpm. Following incubation, approximately half-million cells were inoculated into the wells of the 96-well microtiter plate with a 96‐pin replicator. We used three independent replicates for each strain and the corresponding control. Two rows in the 96-well plate contained only MS medium in order to obtain the background OD value of the medium. Plates were incubated at 30 °C with continuous shaking at 300 rpm. After 20–24 h of incubation, OD600 values were measured in a microplate reader (Biotek Synergy 2).
# [3] = test system: E. coli gene overexpression; settings: gene prfA overexpressed; ref 11 (Matsumoto et al. 2017); cited from earlier work
# Description: Supplement 41467_2019_13618_MOESM1_ESM.docx, table 1: Supplementary Table 1. Collected examples of E. coli gene overexpression from the literature as a confirmation of our chemical-genetic screen results. | column: Overexpression phenotype
# [4] = test system: bacterial species in which the gene showed activity; settings: cited from earlier work
substance,measurement,setting,value
"GNNRPVYIPQPRPPHPRL [AP, Apidaecin IB, antimicrobial peptide, source Apis mellifera L; cluster C3]",Chemical-genetic score,[1],-0.578 log2 fold change
same,Relative MIC,"[2]; overexpression strain cvpA, MIC of overexpression strain / MIC of empty-plasmid control",0.64
same,Relative MIC,"[2]; overexpression strain gadW, MIC of overexpression strain / MIC of empty-plasmid control",2.5
same,Relative MIC,"[2]; overexpression strain lptB, MIC of overexpression strain / MIC of empty-plasmid control",0.64
same,Relative MIC,"[2]; overexpression strain mlaD, MIC of the overexpression strain / MIC of the control strain (wild-type carrying the empty plasmid)",0.6
same,"Overexpression phenotype, Literature",[3],Resistance^11
polymyxin E,Gene that modulates bacterial susceptibility to the AMP,"[4]; Bordetella pertussis, ref http://www.ncbi.nlm.nih.gov/pmc/articles/PMC4136009/","lgmA, IgmB, IgmC"
protegrin,Gene that modulates bacterial susceptibility to the AMP,"[4]; Salmonella typhimurium, Salmonella typhi, ref http://www.sciencedirect.com/science/article/pii/S009286740081750X",pagP
"protegrin-1 (RGGRLCYCRRRFCVCVGR; ends and bridges not checked; cysteine pairing not given here; UniProt P32194 131-148, looked up)",Gene that modulates bacterial susceptibility to the AMP,"[4]; Neisseria meningitidis, Neisseria gonorrhoeae, ref http://www.ncbi.nlm.nih.gov/pmc/articles/PMC1196002/","mtrC, mtrD, mtrE"
same,Gene that modulates bacterial susceptibility to the AMP,"[4]; Neisseria meningitidis, ref https://www.ncbi.nlm.nih.gov/pmc/articles/PMC1196002/",lptA
same,Gene that modulates bacterial susceptibility to the AMP,[4],pgtE
